Experiments:
Assay in all cases: pEC50 of peptide local stability change
MurD = MurD (UniProt P14900); settings: peptide sequence: YLNGDNVR; direction: stabilized; replicate design: treated separately
Outline: (§1)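 Lysate of E. coli K-12 BW25113 (1.2 mg ml^−1, desalted, with added MgCl2) was divided into four 50 µl replicates and incubated with ATP (10 µM–10 mM, seven doses) or water for 30 min at 25 °C. After a 4 min trypsin digestion at 22 °C, samples were run by DIA LC–MS/MS, and per-replicate treated/control peptide ratios were fitted with a four-parameter log-logistic model. Values were retained only where R^2 was above 0.9 in at least three replicates and the coefficient of variation was at most 0.25. The reported figure is the mean pEC50 over replicates.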

UniProt P00452 = settings: peptide sequence: VKAVELFSLMMQER; direction: stabilized; replicate design: treated separately
UniProt P00452, sequence (P00452 whole entry): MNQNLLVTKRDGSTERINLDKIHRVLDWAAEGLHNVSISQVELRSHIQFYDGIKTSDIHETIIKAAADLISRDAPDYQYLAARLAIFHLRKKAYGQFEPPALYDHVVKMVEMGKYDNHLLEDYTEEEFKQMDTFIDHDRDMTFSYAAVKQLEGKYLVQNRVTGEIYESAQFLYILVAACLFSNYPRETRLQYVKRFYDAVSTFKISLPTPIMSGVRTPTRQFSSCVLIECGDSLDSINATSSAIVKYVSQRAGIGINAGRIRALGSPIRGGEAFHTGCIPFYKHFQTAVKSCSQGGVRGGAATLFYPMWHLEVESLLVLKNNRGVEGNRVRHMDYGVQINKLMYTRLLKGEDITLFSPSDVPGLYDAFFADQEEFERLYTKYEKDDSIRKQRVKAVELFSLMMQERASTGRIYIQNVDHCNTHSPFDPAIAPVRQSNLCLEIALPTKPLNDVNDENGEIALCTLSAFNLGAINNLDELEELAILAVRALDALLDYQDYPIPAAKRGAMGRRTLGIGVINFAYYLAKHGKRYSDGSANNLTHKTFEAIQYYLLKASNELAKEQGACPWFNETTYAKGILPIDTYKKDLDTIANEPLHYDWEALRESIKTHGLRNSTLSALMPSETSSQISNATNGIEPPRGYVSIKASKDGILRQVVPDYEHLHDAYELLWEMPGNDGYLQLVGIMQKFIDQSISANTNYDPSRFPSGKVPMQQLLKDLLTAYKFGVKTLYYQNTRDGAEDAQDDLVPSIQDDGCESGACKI
Outline: as §1

UniProt P00959 = settings: peptide sequence: LKENGFIK; direction: stabilized; replicate design: treated separately
Outline: as §1

UniProt P0A8F8 = settings: peptide sequence: VLVTTLTKR; direction: stabilized; replicate design: treated separately
Outline: as §1

UniProt P0A9P6 = settings: peptide sequence: DVLGMAQTGSGK; direction: stabilized; replicate design: treated separately
Outline: as §1

UniProt P0AA41 = settings: peptide sequence: EDKGPQPAVTHYR; direction: stabilized; replicate design: treated separately
UniProt P0AA41, sequence (P0AA41 whole entry): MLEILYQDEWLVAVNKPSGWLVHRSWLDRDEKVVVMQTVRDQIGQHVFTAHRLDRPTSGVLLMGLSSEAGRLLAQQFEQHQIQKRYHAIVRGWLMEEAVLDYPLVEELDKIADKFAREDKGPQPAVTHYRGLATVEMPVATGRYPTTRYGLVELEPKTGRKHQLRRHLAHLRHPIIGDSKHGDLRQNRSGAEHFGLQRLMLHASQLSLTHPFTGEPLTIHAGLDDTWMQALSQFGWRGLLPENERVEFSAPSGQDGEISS
Outline: as §1

UniProt P0AES0 = settings: peptide sequence: GDESLVIKK; direction: stabilized; replicate design: treated separately
Outline: as §1

UniProt P11868 = settings: peptide sequence: HIAGHAASLR; direction: stabilized; replicate design: treated separately
Outline: as §1

UniProt P12282 = settings: peptide sequence: NQLNAGCFAAK; direction: stabilized; replicate design: treated separately
UniProt P12282, sequence (P12282 whole entry): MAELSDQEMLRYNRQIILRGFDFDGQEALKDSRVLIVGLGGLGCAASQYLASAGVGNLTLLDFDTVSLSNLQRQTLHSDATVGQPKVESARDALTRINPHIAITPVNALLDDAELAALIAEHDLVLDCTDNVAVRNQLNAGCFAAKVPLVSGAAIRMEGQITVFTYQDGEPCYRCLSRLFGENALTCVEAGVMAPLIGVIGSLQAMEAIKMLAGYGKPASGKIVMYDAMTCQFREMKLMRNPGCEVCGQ
Outline: as §1

UniProt P15034 = settings: peptide sequence: RAGEITAMAHTR; direction: stabilized; replicate design: treated separately
Outline: as §1

UniProt P17888 = settings: peptide sequence: QQQALAALR; direction: stabilized; replicate design: treated separately
Outline: as §1

UniProt P21345 = settings: peptide sequence: EVLGKFDK; direction: stabilized; replicate design: treated separately
Outline: as §1

UniProt P23837 = settings: peptide sequence: VDTLRPGQGVGLAVAR; direction: stabilized; replicate design: treated separately
UniProt P23837, sequence (P23837 whole entry): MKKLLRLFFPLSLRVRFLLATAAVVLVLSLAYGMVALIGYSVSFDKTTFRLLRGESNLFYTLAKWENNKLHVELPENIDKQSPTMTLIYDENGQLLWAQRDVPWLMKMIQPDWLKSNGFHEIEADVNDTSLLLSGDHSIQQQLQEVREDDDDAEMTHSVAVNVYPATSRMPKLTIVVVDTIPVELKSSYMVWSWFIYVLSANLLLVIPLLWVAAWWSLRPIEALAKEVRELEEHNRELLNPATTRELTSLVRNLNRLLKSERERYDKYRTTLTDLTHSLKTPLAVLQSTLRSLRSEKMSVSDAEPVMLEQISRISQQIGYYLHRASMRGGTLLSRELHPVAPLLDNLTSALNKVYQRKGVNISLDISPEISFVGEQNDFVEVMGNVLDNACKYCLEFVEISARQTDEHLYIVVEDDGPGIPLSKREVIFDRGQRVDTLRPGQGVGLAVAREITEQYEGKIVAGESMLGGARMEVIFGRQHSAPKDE
Outline: as §1

UniProt P24182 = settings: peptide sequence: LMGDKVSAIAAMKK; direction: stabilized; replicate design: treated separately
Outline: as §1

UniProt P24230 = settings: peptide sequence: LVQGDVGSGK; direction: stabilized; replicate design: treated separately
Outline: as §1

UniProt P25536 = settings: peptide sequence: IVTGIEEQR; direction: stabilized; replicate design: treated separately
UniProt P25536, sequence (P25536 whole entry): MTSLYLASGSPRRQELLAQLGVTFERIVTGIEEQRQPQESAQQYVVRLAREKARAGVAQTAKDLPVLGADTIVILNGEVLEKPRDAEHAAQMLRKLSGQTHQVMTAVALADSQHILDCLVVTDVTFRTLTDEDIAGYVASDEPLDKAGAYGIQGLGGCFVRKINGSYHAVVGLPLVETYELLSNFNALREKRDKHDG
Outline: as §1

UniProt P27833 = settings: peptide sequence: SALINFLK; direction: stabilized; replicate design: treated separately
Outline: as §1

UniProt P30176 = settings: peptide sequence: AKFEQHAELR; direction: stabilized; replicate design: treated separately
UniProt P30176, sequence (P30176 whole entry): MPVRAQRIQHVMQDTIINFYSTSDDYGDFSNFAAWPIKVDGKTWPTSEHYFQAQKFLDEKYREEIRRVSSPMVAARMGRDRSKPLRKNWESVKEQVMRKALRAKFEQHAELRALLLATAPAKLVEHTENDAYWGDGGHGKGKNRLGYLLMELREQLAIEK
Outline: as §1

UniProt P31808 = settings: peptide sequence: TGMTFDAQPGR; direction: stabilized; replicate design: treated separately
UniProt P31808, sequence (P31808 whole entry): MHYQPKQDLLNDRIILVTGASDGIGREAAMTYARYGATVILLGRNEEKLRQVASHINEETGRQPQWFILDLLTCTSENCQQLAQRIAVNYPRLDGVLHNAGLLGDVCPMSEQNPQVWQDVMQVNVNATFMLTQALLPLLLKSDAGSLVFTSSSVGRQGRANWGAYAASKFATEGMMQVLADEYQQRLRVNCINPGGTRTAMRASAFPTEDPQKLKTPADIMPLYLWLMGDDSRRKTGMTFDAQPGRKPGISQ
Outline: as §1

UniProt P32143 = settings: peptide sequence: AGIPDCDQTR; direction: stabilized; replicate design: treated separately
UniProt P32143, sequence (P32143 whole entry): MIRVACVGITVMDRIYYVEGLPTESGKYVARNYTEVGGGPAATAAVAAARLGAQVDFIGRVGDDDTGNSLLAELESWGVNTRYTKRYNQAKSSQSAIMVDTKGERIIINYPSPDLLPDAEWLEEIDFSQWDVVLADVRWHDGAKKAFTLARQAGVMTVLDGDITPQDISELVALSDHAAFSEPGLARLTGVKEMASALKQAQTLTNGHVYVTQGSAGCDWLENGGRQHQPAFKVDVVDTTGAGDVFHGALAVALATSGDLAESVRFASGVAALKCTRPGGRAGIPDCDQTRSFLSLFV
Outline: as §1

UniProt P33940 = settings: peptide sequence: EYYPQAK; direction: stabilized; replicate design: treated separately
UniProt P33940, sequence (P33940 whole entry): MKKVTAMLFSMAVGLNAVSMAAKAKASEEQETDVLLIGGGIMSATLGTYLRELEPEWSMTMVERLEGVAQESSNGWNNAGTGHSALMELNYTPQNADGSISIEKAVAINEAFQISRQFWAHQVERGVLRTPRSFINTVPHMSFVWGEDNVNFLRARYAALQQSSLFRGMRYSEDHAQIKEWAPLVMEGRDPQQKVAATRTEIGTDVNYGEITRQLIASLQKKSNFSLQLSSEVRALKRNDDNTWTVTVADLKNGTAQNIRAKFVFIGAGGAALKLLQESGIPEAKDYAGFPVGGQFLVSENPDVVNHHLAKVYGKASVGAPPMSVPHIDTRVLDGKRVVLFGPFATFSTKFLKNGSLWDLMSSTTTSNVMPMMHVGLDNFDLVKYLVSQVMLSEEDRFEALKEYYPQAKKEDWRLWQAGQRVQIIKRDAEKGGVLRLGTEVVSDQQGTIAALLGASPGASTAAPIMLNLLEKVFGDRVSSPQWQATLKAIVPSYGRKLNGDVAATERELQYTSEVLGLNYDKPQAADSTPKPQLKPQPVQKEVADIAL
Outline: as §1

UniProt P36938 = settings: peptide sequence: TLVSSAMIDR; direction: stabilized; replicate design: treated separately
UniProt P36938, sequence (P36938 whole entry): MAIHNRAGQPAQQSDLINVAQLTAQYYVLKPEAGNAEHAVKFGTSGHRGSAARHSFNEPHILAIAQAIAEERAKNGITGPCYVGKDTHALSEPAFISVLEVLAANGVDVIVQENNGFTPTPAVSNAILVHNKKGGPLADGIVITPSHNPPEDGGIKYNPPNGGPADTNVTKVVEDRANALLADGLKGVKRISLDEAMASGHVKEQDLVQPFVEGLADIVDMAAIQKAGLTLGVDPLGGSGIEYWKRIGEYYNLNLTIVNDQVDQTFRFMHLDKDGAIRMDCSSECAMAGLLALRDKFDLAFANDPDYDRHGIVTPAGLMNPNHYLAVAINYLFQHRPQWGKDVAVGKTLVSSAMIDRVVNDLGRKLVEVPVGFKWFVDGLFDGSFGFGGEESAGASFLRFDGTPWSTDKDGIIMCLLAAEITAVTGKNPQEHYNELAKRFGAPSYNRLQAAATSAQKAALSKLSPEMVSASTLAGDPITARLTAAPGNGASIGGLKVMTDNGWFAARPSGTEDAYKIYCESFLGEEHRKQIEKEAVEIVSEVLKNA
Outline: as §1

UniProt P37344 = settings: peptide sequence: ETLLNYR; direction: stabilized; replicate design: treated separately
UniProt P37344, sequence (P37344 whole entry): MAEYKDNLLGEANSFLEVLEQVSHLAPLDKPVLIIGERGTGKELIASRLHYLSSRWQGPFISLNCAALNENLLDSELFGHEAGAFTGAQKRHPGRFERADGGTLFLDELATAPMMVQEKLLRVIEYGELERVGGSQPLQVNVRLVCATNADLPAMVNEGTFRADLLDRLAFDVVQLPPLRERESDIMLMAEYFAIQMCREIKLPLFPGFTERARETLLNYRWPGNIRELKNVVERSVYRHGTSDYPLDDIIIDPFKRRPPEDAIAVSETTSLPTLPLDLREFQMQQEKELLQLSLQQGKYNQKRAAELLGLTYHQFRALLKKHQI
Outline: as §1

UniProt P40719 = settings: peptide sequence: RFTSDAAHELR; direction: stabilized; replicate design: treated separately
Outline: as §1

UniProt P42593 = settings: peptide sequence: TTGWIHR; direction: stabilized; replicate design: treated separately
Outline: as §1

UniProt P45395 = settings: peptide sequence: VNDIMHTGDEIPHVKK; direction: stabilized; replicate design: treated separately
UniProt P45395, sequence (P45395 whole entry): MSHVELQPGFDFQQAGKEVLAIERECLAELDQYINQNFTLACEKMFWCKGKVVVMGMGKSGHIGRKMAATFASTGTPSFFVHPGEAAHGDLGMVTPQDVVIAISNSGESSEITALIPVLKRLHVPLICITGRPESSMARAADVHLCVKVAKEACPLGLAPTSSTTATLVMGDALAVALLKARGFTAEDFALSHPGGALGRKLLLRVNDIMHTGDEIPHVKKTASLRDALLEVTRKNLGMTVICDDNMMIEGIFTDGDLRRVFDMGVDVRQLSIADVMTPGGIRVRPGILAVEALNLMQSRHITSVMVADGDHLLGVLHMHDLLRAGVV
Outline: as §1

UniProt P46889 = settings: peptide sequence: DIAGEPVVADLAK; direction: stabilized; replicate design: treated separately
Outline: as §1

UniProt P64610 = settings: peptide sequence: YYAHLGR; direction: stabilized; replicate design: treated separately
Outline: as §1

UniProt P75736 = settings: peptide sequence: QQAAAIMR; direction: stabilized; replicate design: treated separately
Outline: as §1

UniProt P76256 = settings: peptide sequence: GPGSFTGVR; direction: stabilized; replicate design: treated separately
UniProt P76256, sequence (P76256 whole entry): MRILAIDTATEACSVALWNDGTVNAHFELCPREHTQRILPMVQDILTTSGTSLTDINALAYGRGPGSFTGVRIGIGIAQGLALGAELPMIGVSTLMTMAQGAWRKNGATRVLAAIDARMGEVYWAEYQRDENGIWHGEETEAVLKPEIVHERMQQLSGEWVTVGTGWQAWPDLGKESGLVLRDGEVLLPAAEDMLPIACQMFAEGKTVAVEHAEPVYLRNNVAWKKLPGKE
Outline: as §1

UniProt P77499 = settings: peptide sequence: GKDLLALSPEDR; direction: stabilized; replicate design: treated separately
UniProt P77499, sequence (P77499 whole entry): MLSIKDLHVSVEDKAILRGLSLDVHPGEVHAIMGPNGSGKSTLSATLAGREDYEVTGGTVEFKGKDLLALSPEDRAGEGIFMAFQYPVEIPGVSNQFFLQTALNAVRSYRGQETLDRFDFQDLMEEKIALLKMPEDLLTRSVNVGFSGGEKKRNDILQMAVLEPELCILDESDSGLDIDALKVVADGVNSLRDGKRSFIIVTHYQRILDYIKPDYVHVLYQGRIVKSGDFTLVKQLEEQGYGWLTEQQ
Outline: as §1

Nc1ncnc2c1ncn2[C@@H]1O[C@H](COP(=O)(O)OP(=O)(O)OP(=O)(O)O)[C@@H](O)[C@H]1O [adenosine 5'-triphosphate]
Settings | pEC50 of peptide local stability change
MurD | 3.82
UniProt P0A8F8 | 2.14
UniProt P0A9P6 | 3.67
UniProt P0AA41 | 2.34
UniProt P0AES0 | 3.95
UniProt P00452 | 3.75
UniProt P00959 | 2.99
UniProt P11868 | 3.41
UniProt P12282 | 3.44
UniProt P15034 | 3.83
UniProt P17888 | 3.81
UniProt P21345 | 2.25
UniProt P23837 | 3.21
UniProt P24182 | 3.89
UniProt P24230 | 2.78
UniProt P25536 | 3.52
UniProt P27833 | 2.89
UniProt P30176 | 2.71
UniProt P31808 | 2.09
UniProt P32143 | 3.39
UniProt P33940 | 3.09
UniProt P36938 | 2.48
UniProt P37344 | 3.2
UniProt P40719 | 3.59
UniProt P42593 | 2.95
UniProt P45395 | 3.32
UniProt P46889 | 2.99
UniProt P64610 | 4.1
UniProt P75736 | 2.02
UniProt P76256 | 3.97
UniProt P77499 | 3.9

From the supplement of paper PMC12819154, “High-throughput peptide-centric local stability assay extends protein–ligand identification to membrane proteins, tissues and bacteria” (Nature Structural & Molecular Biology, 2025)
